Assay results taken from ChEMBL document CHEMBL1140902 (J Med Chem, 2009).

What follows are compounds tested against T1, Progesterone receptor (Homo sapiens, UniProt P06401) (assay: Antagonist activity at progesterone receptor in human T47D-C124 cells transfected with luciferase gene linked to MMTV promoter assessed as inhibition of progesterone-induced luciferase transactivation activity after 24 hrs).
T1 sequence (P06401 whole entry): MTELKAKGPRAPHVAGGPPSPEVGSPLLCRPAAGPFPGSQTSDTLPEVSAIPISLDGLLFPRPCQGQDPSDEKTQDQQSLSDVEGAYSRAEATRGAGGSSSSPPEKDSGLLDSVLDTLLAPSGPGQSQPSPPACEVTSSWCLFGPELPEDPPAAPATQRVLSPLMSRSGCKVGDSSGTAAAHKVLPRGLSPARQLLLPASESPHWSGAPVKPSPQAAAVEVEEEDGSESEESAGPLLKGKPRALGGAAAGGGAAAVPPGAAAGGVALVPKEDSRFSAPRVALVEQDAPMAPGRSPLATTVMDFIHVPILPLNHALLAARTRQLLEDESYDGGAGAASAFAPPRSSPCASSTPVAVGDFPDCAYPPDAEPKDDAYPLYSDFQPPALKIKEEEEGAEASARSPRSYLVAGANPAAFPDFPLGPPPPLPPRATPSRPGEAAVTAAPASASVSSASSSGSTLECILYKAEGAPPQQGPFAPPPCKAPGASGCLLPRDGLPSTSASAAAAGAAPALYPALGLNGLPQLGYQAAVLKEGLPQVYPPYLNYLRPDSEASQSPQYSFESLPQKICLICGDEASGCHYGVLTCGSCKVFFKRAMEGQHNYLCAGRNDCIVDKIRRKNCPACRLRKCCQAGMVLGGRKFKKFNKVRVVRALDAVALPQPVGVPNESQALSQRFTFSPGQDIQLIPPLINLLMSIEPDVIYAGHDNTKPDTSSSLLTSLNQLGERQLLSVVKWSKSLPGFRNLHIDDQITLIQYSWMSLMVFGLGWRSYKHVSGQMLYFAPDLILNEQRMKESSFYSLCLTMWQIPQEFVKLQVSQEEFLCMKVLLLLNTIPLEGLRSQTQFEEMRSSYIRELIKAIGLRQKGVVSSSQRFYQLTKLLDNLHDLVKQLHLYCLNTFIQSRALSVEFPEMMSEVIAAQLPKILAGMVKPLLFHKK
Type: functional, cell-based

SMILES | IC50 [nM]
CC#C[C@]1(O)CC[C@H]2[C@@H]3CCC4=CC(=O)CCC4=C3[C@@H](c3ccc(NC)cc3)C[C@@]21C [DESMETHYLMIFEPRISTONE] | 0.073
CC#C[C@]1(O)CC[C@H]2[C@@H]3CCC4=CC(=O)CCC4=C3[C@@H](c3ccc(N(C)CCCCCCO)cc3)C[C@@]21C | 0.071
CC#C[C@]1(O)CC[C@H]2[C@@H]3CCC4=CC(=O)CCC4=C3[C@@H](c3ccc(N(C)CCC)cc3)C[C@@]21C | 0.025
CC#C[C@]1(O)CC[C@H]2[C@@H]3CCC4=CC(=O)CCC4=C3[C@@H](c3ccc(N(C)CCCCCC4OCCO4)cc3)C[C@@]21C | 0.073
CC#C[C@]1(O)CC[C@H]2[C@@H]3CCC4=CC(=O)CCC4=C3[C@@H](c3ccc(N(C)CCCO)cc3)C[C@@]21C | 0.105

Continued, values first:

IC50 [nM] | SMILES
0.38 | CC#C[C@]1(O)CC[C@H]2[C@@H]3CCC4=CC(=O)CCC4=C3[C@@H](c3ccc(N(C)CCCCCCCCC)cc3)C[C@@]21C
0.18 | CC#C[C@]1(O)CC[C@H]2[C@@H]3CCC4=CC(=O)CCC4=C3[C@@H](c3ccc(N(C)CCCCCC)cc3)C[C@@]21C

Each compound was assayed against T1, Progesterone receptor (assay: Antagonist activity at progesterone receptor in human T47D cells assessed as inhibition of progesterone-induced alkaline phosphatase activity after 48 hrs).
Type: functional, cell-based

SMILES | IC50 [nM]
CC#C[C@]1(O)CC[C@H]2[C@@H]3CCC4=CC(=O)CCC4=C3[C@@H](c3ccc(NC)cc3)C[C@@]21C [DESMETHYLMIFEPRISTONE] | 0.17
CC#C[C@]1(O)CC[C@H]2[C@@H]3CCC4=CC(=O)CCC4=C3[C@@H](c3ccc(N(C)C(=O)NCCCCCC(=O)N[C@@H](CC(C)C)C(=O)O)cc3)C[C@@]21C | 72
CC#C[C@]1(O)CC[C@H]2[C@@H]3CCC4=CC(=O)CCC4=C3[C@@H](c3ccc(N(C)CCCCCCCCCCC(=O)O)cc3)C[C@@]21C | 0.46
CC#C[C@]1(O)CC[C@H]2[C@@H]3CCC4=CC(=O)CCC4=C3[C@@H](c3ccc(OCCCCCCCCCBr)cc3)C[C@@]21C | 1
CC#C[C@]1(O)CC[C@H]2[C@@H]3CCC4=CC(=O)CCC4=C3[C@@H](c3ccc(N(C)C(=O)Nc4ccc(Cl)cc4)cc3)C[C@@]21C | 0.27
CC#C[C@]1(O)CC[C@H]2[C@@H]3CCC4=CC(=O)CCC4=C3[C@@H](c3ccc(N(C)CCCCCCO)cc3)C[C@@]21C | 0.06
CC#C[C@]1(O)CC[C@H]2[C@@H]3CCC4=CC(=O)CCC4=C3[C@@H](c3ccc(N(C)CCCCCCOC(=O)CCC(=O)OC)cc3)C[C@@]21C | 0.17
CC#C[C@]1(O)CC[C@H]2[C@@H]3CCC4=CC(=O)CCC4=C3[C@@H](c3ccc(N(C)CCC(=O)OC)cc3)C[C@@]21C | 0.16
CC#C[C@]1(O)CC[C@H]2[C@@H]3CCC4=CC(=O)CCC4=C3[C@@H](c3ccc(N(C)CCC)cc3)C[C@@]21C | 0.27
CC#C[C@]1(O)CC[C@H]2[C@@H]3CCC4=CC(=O)CCC4=C3[C@@H](c3ccc(N(C)C(=O)NCCCCCC(=O)OC)cc3)C[C@@]21C | 2.2
CC#C[C@]1(O)CC[C@H]2[C@@H]3CCC4=CC(=O)CCC4=C3[C@@H](c3ccc(N(C)CCC(=O)Nc4ccc(C(N)=O)c(O)c4)cc3)C[C@@]21C | 0.44
CC#C[C@]1(O)CC[C@H]2[C@@H]3CCC4=CC(=O)CCC4=C3[C@@H](c3ccc(N(C)CCCCCC(N)=O)cc3)C[C@@]21C | 0.55
CC#C[C@]1(O)CC[C@H]2[C@@H]3CCC4=CC(=O)CCC4=C3[C@@H](c3ccc(N(C)C(=O)NCCCC)cc3)C[C@@]21C | 0.79
CC#C[C@]1(O)CC[C@H]2[C@@H]3CCC4=CC(=O)CCC4=C3[C@@H](c3ccc(N(C)C(=O)CCCCC)cc3)C[C@@]21C | 0.69
CC#C[C@]1(O)CC[C@H]2[C@@H]3CCC4=CC(=O)CCC4=C3[C@@H](c3ccc(N(C)CCCCCC4OCCO4)cc3)C[C@@]21C | 0.17
CC#C[C@]1(O)CC[C@H]2[C@@H]3CCC4=CC(=O)CCC4=C3[C@@H](c3ccc(N(C)CCCO)cc3)C[C@@]21C | 0.12
CC#C[C@]1(O)CC[C@H]2[C@@H]3CCC4=CC(=O)CCC4=C3[C@@H](c3ccc(N(C)C(=O)NCCCCCC(=O)N[C@@H](CC(C)C)C(=O)OC(C)(C)C)cc3)C[C@@]21C | 1.7
CC#C[C@]1(O)CC[C@H]2[C@@H]3CCC4=CC(=O)CCC4=C3[C@@H](c3ccc(N(C)CCC(=O)O)cc3)C[C@@]21C | 34
CC#C[C@]1(O)CC[C@H]2[C@@H]3CCC4=CC(=O)CCC4=C3[C@@H](c3ccc(N(C)C(=O)CCCCC(=O)OC)cc3)C[C@@]21C | 1.8
CC#C[C@]1(O)CC[C@H]2[C@@H]3CCC4=CC(=O)CCC4=C3[C@@H](c3ccc(O)cc3)C[C@@]21C | 1.3
CC#C[C@]1(O)CC[C@H]2[C@@H]3CCC4=CC(=O)CCC4=C3[C@@H](c3ccc(OC)cc3)C[C@@]21C | 0.095
CC#C[C@]1(O)CC[C@H]2[C@@H]3CCC4=CC(=O)CCC4=C3[C@@H](c3ccc(N(C)CCCCCC=O)cc3)C[C@@]21C | 0.15
CC#C[C@]1(O)CC[C@H]2[C@@H]3CCC4=CC(=O)CCC4=C3[C@@H](c3ccc(N(C)CCCCCCOC(=O)CCC(=O)O)cc3)C[C@@]21C | 0.25
CC#C[C@]1(O)CC[C@H]2[C@@H]3CCC4=CC(=O)CCC4=C3[C@@H](c3ccc(N(C)CCCCCCCC(=O)O)cc3)C[C@@]21C | 0.27
CC#C[C@]1(O)CC[C@H]2[C@@H]3CCC4=CC(=O)CCC4=C3[C@@H](c3ccc(N(C)C(=O)CCCC(=O)O)cc3)C[C@@]21C | 100

More lines, in order of falling IC50, values ahead:

IC50 [nM] | SMILES
78 | CC#C[C@]1(O)CC[C@H]2[C@@H]3CCC4=CC(=O)CCC4=C3[C@@H](c3ccc(N(C)C(=O)CCCCC(=O)O)cc3)C[C@@]21C
72 | CC#C[C@]1(O)CC[C@H]2[C@@H]3CCC4=CC(=O)CCC4=C3[C@@H](c3ccc(N(C)C(=O)NCCCCCC(=O)O)cc3)C[C@@]21C
2.1 | CC#C[C@]1(O)CC[C@H]2[C@@H]3CCC4=CC(=O)CCC4=C3[C@@H](c3ccc(N(C)CCCOC(=O)CCC(=O)O)cc3)C[C@@]21C
1.55 | CC#C[C@]1(O)CC[C@H]2[C@@H]3CCC4=CC(=O)CCC4=C3[C@@H](c3ccc(N(C)C(=O)CCCC(=O)OC)cc3)C[C@@]21C
1.4 | CC#C[C@]1(O)CC[C@H]2[C@@H]3CCC4=CC(=O)CCC4=C3[C@@H](c3ccc(N(C)CCCCCCCCC)cc3)C[C@@]21C
1.2 | CC#C[C@]1(O)CC[C@H]2[C@@H]3CCC4=CC(=O)CCC4=C3[C@@H](c3ccc(N(C)CCCOC(=O)CCC(=O)OC)cc3)C[C@@]21C
0.9 | CC#C[C@]1(O)CC[C@H]2[C@@H]3CCC4=CC(=O)CCC4=C3[C@@H](c3ccc(N(C)CCCCCC(=O)NCCCC)cc3)C[C@@]21C
0.73 | CC#C[C@]1(O)CC[C@H]2[C@@H]3CCC4=CC(=O)CCC4=C3[C@@H](c3ccc(N(C)C(=S)NCCCC)cc3)C[C@@]21C
0.66 | CC#C[C@]1(O)CC[C@H]2[C@@H]3CCC4=CC(=O)CCC4=C3[C@@H](c3ccc(N(C)CCCCCC)cc3)C[C@@]21C
0.63 | CC#C[C@]1(O)CC[C@H]2[C@@H]3CCC4=CC(=O)CCC4=C3[C@@H](c3ccc(N(C)CCCCCCCCCCC(=O)OC)cc3)C[C@@]21C
0.47 | CC#C[C@]1(O)CC[C@H]2[C@@H]3CCC4=CC(=O)CCC4=C3[C@@H](c3ccc(N(C)CCCCCCCC(=O)OC)cc3)C[C@@]21C
0.46 | CC#C[C@]1(O)CC[C@H]2[C@@H]3CCC4=CC(=O)CCC4=C3[C@@H](c3ccc(N(C)CCCOCc4ccc(C(N)=O)c(O)c4)cc3)C[C@@]21C
0.44 | CC#C[C@]1(O)CC[C@H]2[C@@H]3CCC4=CC(=O)CCC4=C3[C@@H](c3ccc(N(C)CCCCCC(=O)O)cc3)C[C@@]21C
0.4 | CC#C[C@]1(O)CC[C@H]2[C@@H]3CCC4=CC(=O)CCC4=C3[C@@H](c3ccc(N(C)CCCCCC(=O)OC)cc3)C[C@@]21C
0.16 | CC#C[C@]1(O)CC[C@H]2[C@@H]3CCC4=CC(=O)CCC4=C3[C@@H](c3ccc(N(C)C(=S)Nc4ccc(Cl)cc4)cc3)C[C@@]21C
